In PubChem BioAssay AID1963869 (Molecular Pharmacology Branch, DTP, NCI, 2024):

Tested on: KRAS patient-derived spheroids with HUVEC/MSC, viability
Test: Anticancer human tumor 323965-272-R-J2-PDC patient-derived pancreatic carcinoma cell line growth inhibition [KRAS2]
Settings: for IC50: curve of first compound; for viability, T/C: stronger effect = lower value; active = viability on the fitted dose curve at most 10% of control; inactive = the rest
Method in brief: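 Combination screen of spheroid viability in tumor-cell co-cultures with endothelial (HUVEC) and mesenchymal stem cell stroma. Each agent was tested in half-log dilutions, topping at clinical Cmax or at 10 microM without a known Cmax.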

[1] = second compound 0.0316 µM, first compound 0.0316 µM
[2] = second compound 0.1 µM, first compound 0.0316 µM
[3] = second compound 0.316 µM, first compound 0.0316 µM
[4] = second compound 1 µM, first compound 0.0316 µM
[5] = second compound 3.16 µM, first compound 0.0316 µM
[6] = second compound 0.0316 µM, first compound 0.1 µM
[7] = second compound 0.0316 µM, first compound 0.316 µM
[8] = second compound 0.0316 µM, first compound 1 µM
[9] = second compound 0.0316 µM, first compound 3.16 µM
[10] = second compound 0.0316 µM, first compound 10 µM
[11] = second compound 0.1 µM, first compound 0.1 µM
[12] = second compound 0.1 µM, first compound 0.316 µM
[13] = second compound 0.1 µM, first compound 1 µM
[14] = second compound 0.1 µM, first compound 3.16 µM
[15] = second compound 0.1 µM, first compound 10 µM
[16] = second compound 0.316 µM, first compound 0.1 µM
[17] = second compound 0.316 µM, first compound 0.316 µM
[18] = second compound 0.316 µM, first compound 1 µM
[19] = second compound 0.316 µM, first compound 3.16 µM
[20] = second compound 0.316 µM, first compound 10 µM
[21] = second compound 1 µM, first compound 0.1 µM
[22] = second compound 1 µM, first compound 0.316 µM
[23] = second compound 1 µM, first compound 1 µM
[24] = second compound 1 µM, first compound 3.16 µM
[25] = second compound 1 µM, first compound 10 µM
[26] = second compound 3.16 µM, first compound 0.1 µM
[27] = second compound 3.16 µM, first compound 0.316 µM
[28] = second compound 3.16 µM, first compound 1 µM
[29] = second compound 3.16 µM, first compound 3.16 µM
[30] = second compound 3.16 µM, first compound 10 µM
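Also: spheroids exposed to agents for 7 days.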
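For viability, T/C in this document: 100% = DMSO vehicle control viability.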

CC(=O)Nc1cccc(-n2c(=O)n(C3CC3)c(=O)c3c(Nc4ccc(I)cc4F)n(C)c(=O)c(C)c32)c1 + C=CC(=O)N1CCN(c2nc(OCC3CCCN3C)nc3c2CCN(c2cccc4cccc(C)c24)C3)CC1CC#N
< 0.1 nM: IC50 (second compound 3.16 µM)
inactive: viability, T/C (second compound 0.0316 µM, first compound 0.0001 µM) 62.1% | viability, T/C (second compound 0.0316 µM, first compound 0.000316 µM) 63.8% | viability, T/C (second compound 0.0316 µM, first compound 0.001 µM) 53.4% | viability, T/C (second compound 0.0316 µM, first compound 0.00316 µM) 44% | viability, T/C (second compound 0.0316 µM, first compound 0.01 µM) 34.1% | viability, T/C [1] 23.9% | viability, T/C (second compound 0.1 µM, first compound 0.0001 µM) 64.4% | viability, T/C (second compound 0.1 µM, first compound 0.000316 µM) 56.8% | viability, T/C (second compound 0.1 µM, first compound 0.001 µM) 46.8% | viability, T/C (second compound 0.1 µM, first compound 0.00316 µM) 35.4% | viability, T/C (second compound 0.1 µM, first compound 0.01 µM) 32.1% | viability, T/C [2] 22.7% | viability, T/C (second compound 0.316 µM, first compound 0.0001 µM) 56.7% | viability, T/C (second compound 0.316 µM, first compound 0.000316 µM) 46.6% | viability, T/C (second compound 0.316 µM, first compound 0.001 µM) 43.6% | viability, T/C (second compound 0.316 µM, first compound 0.00316 µM) 31.6% | viability, T/C (second compound 0.316 µM, first compound 0.01 µM) 27.4% | viability, T/C [3] 18.8% | viability, T/C (second compound 1 µM, first compound 0.0001 µM) 56.6% | viability, T/C (second compound 1 µM, first compound 0.000316 µM) 53.8% | viability, T/C (second compound 1 µM, first compound 0.001 µM) 40% | viability, T/C (second compound 1 µM, first compound 0.00316 µM) 37.2% | viability, T/C (second compound 1 µM, first compound 0.01 µM) 28.3% | viability, T/C [4] 18.9% | viability, T/C (second compound 3.16 µM, first compound 0.0001 µM) 26% | viability, T/C (second compound 3.16 µM, first compound 0.000316 µM) 28.5% | viability, T/C (second compound 3.16 µM, first compound 0.001 µM) 17% | viability, T/C (second compound 3.16 µM, first compound 0.00316 µM) 22.4%
active: viability, T/C (second compound 3.16 µM, first compound 0.01 µM) 4.06% | viability, T/C [5] 5.52%
1.71 nM: IC50 (second compound 0.0316 µM)
0.255 nM: IC50 (second compound 0.316 µM)
0.644 nM: IC50 (second compound 0.1 µM)
0.361 nM: IC50 (second compound 1 µM)

COc1cc(Nc2ncc3c(n2)-c2ccc(Cl)cc2C(c2c(F)cccc2OC)=NC3)ccc1C(=O)O + C=CC(=O)N1CCN(c2nc(OCC3CCCN3C)nc3c2CCN(c2cccc4cccc(C)c24)C3)CC1CC#N
inactive: viability, T/C [1] 60.1% | viability, T/C [6] 43.8% | viability, T/C [7] 31.4% | viability, T/C [8] 36.3% | viability, T/C [9] 46% | viability, T/C [10] 56.2% | viability, T/C [2] 58.1% | viability, T/C [11] 35.9% | viability, T/C [12] 29.7% | viability, T/C [13] 30.7% | viability, T/C [14] 39.4% | viability, T/C [15] 48.8% | viability, T/C [3] 48.5% | viability, T/C [16] 33.3% | viability, T/C [17] 26.6% | viability, T/C [18] 27.8% | viability, T/C [19] 35.8% | viability, T/C [20] 43.5% | viability, T/C [4] 55.3% | viability, T/C [21] 32.6% | viability, T/C [22] 20.4% | viability, T/C [23] 30.5% | viability, T/C [24] 38.6% | viability, T/C [25] 46.6% | viability, T/C [5] 21.1% | viability, T/C [26] 13.2% | viability, T/C [27] 10.3% | viability, T/C [28] 19% | viability, T/C [29] 20.5% | viability, T/C [30] 15.5%
< 31.6 nM: IC50 (second compound 0.0316 µM) | IC50 (second compound 0.316 µM) | IC50 (second compound 1 µM) | IC50 (second compound 3.16 µM)
49.4 nM: IC50 (second compound 0.1 µM)

COc1cc2nccc(Oc3ccc(NC(=O)C4(C(=O)Nc5ccc(F)cc5)CC4)cc3)c2cc1OC + C=CC(=O)N1CCN(c2nc(OCC3CCCN3C)nc3c2CCN(c2cccc4cccc(C)c24)C3)CC1CC#N
active: viability, T/C [28] 3.74% | viability, T/C [29] 3.65% | viability, T/C [30] 0.28%
> 10000 nM: IC50 (second compound 0.0316 µM) | IC50 (second compound 0.1 µM) | IC50 (second compound 0.316 µM) | IC50 (second compound 1 µM)
< 31.6 nM: IC50 (second compound 3.16 µM)
inactive: viability, T/C [1] 69% | viability, T/C [6] 71.3% | viability, T/C [7] 77.3% | viability, T/C [8] 76.8% | viability, T/C [9] 74.6% | viability, T/C [10] 80.3% | viability, T/C [2] 55.9% | viability, T/C [11] 62.1% | viability, T/C [12] 64.6% | viability, T/C [13] 67.3% | viability, T/C [14] 65.9% | viability, T/C [15] 64.3% | viability, T/C [3] 58.9% | viability, T/C [16] 59.6% | viability, T/C [17] 65.3% | viability, T/C [18] 68.8% | viability, T/C [19] 64.8% | viability, T/C [20] 70.1% | viability, T/C [4] 59.3% | viability, T/C [21] 63.5% | viability, T/C [22] 62.8% | viability, T/C [23] 69.9% | viability, T/C [24] 66.5% | viability, T/C [25] 58.5% | viability, T/C [5] 21.5% | viability, T/C [26] 20.1% | viability, T/C [27] 8.93%
